According to publication PMC7662280 (Molecules, 2020):
Several values for one entry are separate records, joined by “and”; a condition that tells them apart may be missing. Identical values can stand only once. Like-named read-outs stand apart in the source and are kept apart here.

Assays:
[1] = target: T1, soybean lipoxygenase (isozyme LOX-1) (Glycine max, UniProt P08170); test: Soybean lipoxygenase inhibition study; format: biochemical; conditions: for inhibition at 100 µM: read-out: LOX (% Inhibition at 100 μM) ± SEM, soybean lipoxygenase, 100 μM
T1 construct: purchased Sigma Chemical, Co. (St. Louis, MO, USA)
T1 sequence (P08170 1-839): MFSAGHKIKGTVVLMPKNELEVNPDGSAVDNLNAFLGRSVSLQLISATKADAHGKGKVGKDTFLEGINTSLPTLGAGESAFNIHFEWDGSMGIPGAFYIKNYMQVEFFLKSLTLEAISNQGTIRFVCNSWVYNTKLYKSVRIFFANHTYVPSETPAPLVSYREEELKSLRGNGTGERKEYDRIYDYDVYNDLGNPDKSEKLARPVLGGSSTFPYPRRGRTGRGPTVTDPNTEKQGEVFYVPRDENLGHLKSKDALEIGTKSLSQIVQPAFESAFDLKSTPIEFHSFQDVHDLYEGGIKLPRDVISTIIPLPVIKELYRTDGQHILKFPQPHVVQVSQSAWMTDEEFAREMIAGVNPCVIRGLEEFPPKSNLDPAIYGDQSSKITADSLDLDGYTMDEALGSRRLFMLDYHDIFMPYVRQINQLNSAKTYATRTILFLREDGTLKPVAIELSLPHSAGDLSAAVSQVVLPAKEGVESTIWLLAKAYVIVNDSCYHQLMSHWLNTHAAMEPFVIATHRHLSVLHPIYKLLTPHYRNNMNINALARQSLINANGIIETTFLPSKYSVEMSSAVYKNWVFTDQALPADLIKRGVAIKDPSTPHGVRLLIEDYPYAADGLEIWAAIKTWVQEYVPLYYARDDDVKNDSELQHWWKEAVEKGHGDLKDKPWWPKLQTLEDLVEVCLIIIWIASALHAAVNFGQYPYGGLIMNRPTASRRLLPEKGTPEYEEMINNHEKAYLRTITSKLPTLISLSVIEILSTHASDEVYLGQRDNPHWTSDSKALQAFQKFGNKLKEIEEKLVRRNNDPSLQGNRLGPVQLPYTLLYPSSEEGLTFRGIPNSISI

[2] = Inhibition of linoleic acid peroxidation induced by AAPH; conditions: anti-lipid peroxidation of linoleic acid, 100 μM
[3] = Experimental lipophilicity as RM values by RPTLC; format: physicochemical; conditions: silica gel impregnated with liquid paraffin, methanol/water 77/23, 24 °C
eel AChE = target: T2, eel AChE (Electrophorus electricus, UniProt O42275); test: biochemical; conditions: for inhibition at 100 µM: n.a. = no activity under the experimental conditions, read-out: AChE (% Inhibition at 100 μM) ± SEM; for IC50: acetylthiocholine substrate, read-out: AChE IC50 (μM) ± SEM
T2 construct: purchased Sigma-Aldrich Type VI-S
T2 sequence (O42275 24-633): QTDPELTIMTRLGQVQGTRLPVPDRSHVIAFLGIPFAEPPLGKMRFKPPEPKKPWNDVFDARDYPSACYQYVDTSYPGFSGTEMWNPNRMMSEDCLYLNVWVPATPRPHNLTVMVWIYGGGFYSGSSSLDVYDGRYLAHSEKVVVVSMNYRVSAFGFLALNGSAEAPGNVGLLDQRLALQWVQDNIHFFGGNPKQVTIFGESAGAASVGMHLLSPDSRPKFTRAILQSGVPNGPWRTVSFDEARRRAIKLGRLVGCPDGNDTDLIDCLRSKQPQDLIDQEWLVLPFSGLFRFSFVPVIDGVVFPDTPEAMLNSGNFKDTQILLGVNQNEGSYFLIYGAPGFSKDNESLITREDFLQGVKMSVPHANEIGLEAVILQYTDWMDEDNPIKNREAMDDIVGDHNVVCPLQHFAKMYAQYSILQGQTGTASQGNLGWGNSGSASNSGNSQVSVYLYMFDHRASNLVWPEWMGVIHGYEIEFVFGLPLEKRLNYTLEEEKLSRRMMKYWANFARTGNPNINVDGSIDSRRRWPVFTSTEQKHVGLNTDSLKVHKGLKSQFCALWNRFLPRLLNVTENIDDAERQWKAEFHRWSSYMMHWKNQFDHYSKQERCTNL

bovine COX-2 = target: T3, bovine COX-2 (Bos taurus, UniProt O62698); test: biochemical; format: biochemical
T3 sequence (O62698 18-604): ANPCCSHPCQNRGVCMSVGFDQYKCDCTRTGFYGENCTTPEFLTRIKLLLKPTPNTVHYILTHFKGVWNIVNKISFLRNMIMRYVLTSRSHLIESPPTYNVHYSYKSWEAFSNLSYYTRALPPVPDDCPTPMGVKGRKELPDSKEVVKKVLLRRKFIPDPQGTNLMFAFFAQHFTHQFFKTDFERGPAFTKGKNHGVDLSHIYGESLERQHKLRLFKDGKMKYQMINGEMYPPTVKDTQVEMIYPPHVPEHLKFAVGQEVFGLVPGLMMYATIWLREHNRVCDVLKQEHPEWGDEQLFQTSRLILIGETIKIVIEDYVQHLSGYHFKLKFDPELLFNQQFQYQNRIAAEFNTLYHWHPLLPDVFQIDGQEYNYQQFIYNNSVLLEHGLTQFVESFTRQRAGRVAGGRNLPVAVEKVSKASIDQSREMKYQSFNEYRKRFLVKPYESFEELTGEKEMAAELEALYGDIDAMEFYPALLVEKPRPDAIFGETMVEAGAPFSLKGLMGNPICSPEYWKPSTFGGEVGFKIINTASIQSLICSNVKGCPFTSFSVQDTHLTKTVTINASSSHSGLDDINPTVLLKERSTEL

[4] = target: T1, soybean lipoxygenase (isozyme LOX-1); conditions: previously published, cited from earlier work; for IC50: read-out: LOX IC50 (μM) ± SEM
[5] = soybean lipoxygenase, sodium linoleate substrate, read-out: LOX IC50 (μM) ± SEM

Molecule | AAPH Inhibition (%, at 100 μΜ) [2] | RM ± S.D. [3] | IC50 [1, 5] | inhibition at 100 µM (eel AChE) | further results
O=C(O)/C=C/c1cccc2ccccc12 [2b] | 78 ± 0.7% | −0.576 ± 0.077 | – | – | IC50 [1]: 27.5 µM
O=C1/C(=C/c2cccc3ccccc23)COC/C1=C\c1cccc2ccccc12 [1m, (3E,5E)-3,5-bis(naphthalen-1-ylmethylene)dihydro-2H-pyran-4(3H)-one] | 100 ± 2.8% | 0.577 ± 0.027 | 50.5 µM | 32% | –
O=C1/C(=C/c2ccc(F)cc2)CN(C(=O)C=Cc2ccccc2)C/C1=C\c1ccc(F)cc1 [3d, (3E,5E)-1-cinnamoyl-3,5-bis(4-fluorobenzylidene)piperidin-4-one] | 84 ± 1.7% | 0.237 ± 0.06 | 63.5 µM | 31% | –
O=C1/C(=C/c2ccccc2)COC/C1=C\c1ccccc1 [1l, (3E,5E)-3,5-dibenzylidenedihydro-2H-pyran-4(3H)-one] | 42 ± 1.5% | – | – | 25% | inhibition at 100 µM [1]: < 10%
O=C(O)/C=C/c1ccc(O)c(O)c1 [2c, caffeic acid] | 80 ± 2.2% | – | – | – | COX-2 (% Inhibition at 100 μM) ± SEM (bovine COX-2; bovine COX-2, 100 μM, n.a. = no activity under the experimental conditions): presented anti-COX-2 activity; IC50 (bovine COX-2; bovine COX-2, read-out: COX-2 IC50 (μM) ± SEM): 57.5 µM
O=C1/C(=C/c2ccccc2)CNC/C1=C\c1ccccc1 [1g, (3E,5E)-3,5-dibenzylidenepiperidin-4-one] | – | – | – | – | LOX (% Inhibition at 100 μM) ± SEM [4]: 8% ± 0.2
COc1cc(/C=C/C(=O)CC(=O)/C=C/c2ccc(O)c(OC)c2)ccc1O [Curcumin, reference compound] | – | 0.175 ± 0.029 | – | – | inhibition at 100 µM [1]: 38%
O=C1/C(=C/c2cccc3ccccc23)CN(C(=O)/C=C/c2ccc(O)c(O)c2)C/C1=C\c1cccc2ccccc12 [3h, (3E,5E)-1-((E)-3-(3,4-dihydroxyphenyl)acryloyl)-3,5-bis(naphthalen-1-ylmethylene)piperidin-4-one] | 93 ± 2.2% | −0.657 and −0.657 ± 0.013 | 34 µM | 14 to 34% | –
O=C1/C(=C/c2ccc(F)cc2)CNC/C1=C\c1ccc(F)cc1 [1j, (3E,5E)-3,5-bis(4-fluorobenzylidene)piperidin-4-one] | 36.2 ± 1.8% | – | – | – | –
O=C1/C(=C/c2cccs2)CNC/C1=C\c1cccs1 [1b, (3E,5E)-3,5-bis(thiophen-2-ylmethylene)piperidin-4-one] | – | – | – | – | IC50 [4]: 330 µM
O=C1/C(=C/c2cccc3ccccc23)CN(C(=O)C=Cc2ccccc2)C/C1=C\c1cccc2ccccc12 [3a, (3E,5E)-1-cinnamoyl-3,5-bis(naphthalen-1-ylmethylene)piperidin-4-one] | 91 ± 1.9% | 0.599 ± 0.024 | 50 µM | – | IC50 (eel AChE): 85 µM
S=C1/C(=C/c2ccccc2)CNC/C1=C\c1ccccc1 [1o, (3E,5E)-3,5-dibenzylidenepiperidine-4-thione] | 8 ± 0.01% | −0.848 ± 0.19 | 10 µM | – | inhibition at 100 µM [1]: < 10%
O=C1/C(=C/c2cccc3ccccc23)CSC/C1=C\c1cccc2ccccc12 [1n, (3Z,5Z)-3,5-bis(naphthalen-1-ylmethylene)dihydro-2H-thiopyran-4(3H)-one] | 100 ± 2.5% | 0.131 ± 0.142 | 57.5 µM | 18% | –
O=C1/C(=C/c2c[nH]c3ccccc23)CNC/C1=C\c1c[nH]c2ccccc12 [1c, (3E,5E)-3,5-bis((1H-indol-3-yl)methylene)piperidin-4-one] | – | – | – | – | IC50 [4]: 380 µM
O=C1/C(=C/c2cccc3ccccc23)CNC/C1=C\c1cccc2ccccc12 [1a, (3E,5E)-3,5-bis(naphthalen-1-ylmethylene)piperidin-4-one] | – | – | – | – | IC50 [4]: 37 µM
O=C1/C(=C/c2cc3ccccc3o2)CNC/C1=C\c1cc2ccccc2o1 [1q, (3E,5E)-3,5-bis(benzofuran-2-ylmethylene)piperidin-4-one] | 13 ± 0.2% | −0.019 ± 0.143 | – | 16.5% | inhibition at 100 µM [1]: 3%
O=C1/C(=C/c2cccc3ccccc23)CN(C(=O)/C=C/c2cccc3ccccc23)C/C1=C\c1cccc2ccccc12 [3c, (3E,5E)-1-((E)-3-(naphthalen-1-yl)acryloyl)-3,5-bis(naphthalen-1-ylmethylene)piperidin-4-one] | 88 ± 2.0% | −0.658 and −0.658 ± 0.061 | 37.5 µM | 29% | –
O=C(O)/C=C/c1ccccc1 [2a] | 78 ±1.6% | −0.485 ± 0.044 | – | 4.6% | –
O=C1/C(=C/c2cccc3ccccc23)CC/C1=C\c1cccc2ccccc12 [1k, (2E,5E)-2,5-bis(naphthalen-1-ylmethylene)cyclopentanone] | 100 ± 2.2% | 0.872 ± 0.039 | 14 µM | 36% | –
O=C1/C(=C/c2cccs2)CN(C(=O)/C=C/c2cccc3ccccc23)C/C1=C\c1cccs1 [3e, (3E,5E)-1-((E)-3-(naphthalen-1-yl)acryloyl)-3,5-bis(thiophen-2-ylmethylene)piperidin-4-one] | 91 ± 2.5% | 0.514 ± 0.039 | 52 µM | – | IC50 (eel AChE): 70 µM; inhibition at 100 µM (bovine COX-2; bovine COX-2, 100 μM, n.a. = no activity under the experimental conditions, read-out: COX-2 (% Inhibition at 100 μM) ± SEM): 19%
O=C1/C(=C/c2ccc(F)cc2)CN(C(=O)/C=C/c2cccc3ccccc23)C/C1=C\c1ccc(F)cc1 [3f, (3E,5E)-3,5-bis(4-fluorobenzylidene)-1-((E)-3-(naphthalen-1-yl)acryloyl)piperidin-4-one] | 90 ± 2.4% | 0.564 ± 0.045 | 55 µM | 24% | –
O=C1/C(=C/c2ccc3[nH]ccc3c2)CNC/C1=C\c1ccc2[nH]ccc2c1 [1d, (3E,5E)-3,5-bis((1H-indol-5-yl)methylene)piperidin-4-one] | – | – | – | – | IC50 [4]: 410 µM
O=C1/C(=C/c2ccccc2)CN(C(=O)C=Cc2ccccc2)C/C1=C\c1ccccc1 [3g, (3E,5E)-3,5-dibenzylidene-1-cinnamoylpiperidin-4-one] | 53 ± 1.6% | 0.235 ± 0.039 | – | – | IC50 [1]: 82 µM; IC50 (eel AChE): 100 µM
O=C1/C(=C/c2ccccc2)CN(C(=O)/C=C/c2cccc3ccccc23)C/C1=C\c1ccccc1 [3b, (3E,5E)-3,5-dibenzylidene-1-((E)-3-(naphthalen-1-yl)acryloyl)piperidin-4-one] | 90 ± 2.8% | 0.509 ± 0.062 | 55 µM | 17% | –
(3E,5E)-3,5-bis((1H-imidazol-2-yl)methylene)piperidin-4-one [1f] | – | – | – | – | LOX (% Inhibition at 100 μM) ± SEM [4]: 36% ± 0.9
Cc1c(C)c2c(c(C)c1O)CCC(C)(C(=O)O)O2 (stereo not shown) [Trolox, reference compound] | 92 ± 2.1% | – | – | – | –
S=C1/C(=C/c2cccc3ccccc23)CNC/C1=C\c1cccc2ccccc12 [1p, (3E,5E)-3,5-bis(naphthalen-1-ylmethylene)piperidine-4-thione] | 100 ± 3.3% | −0.679 ± 0.035 | 35 µM | 26.6% | –
